Results taken from ChEMBL document CHEMBL5352470, “RS6077 induces mitotic arrest and selectively activates cell death in human cancer cell lines and in a lymphoma tumor in vivo” (Eur J Med Chem, 2023).

Assays:
[1] = Toxicity in human T cells derived from human PBMC assessed as early apoptotic cells at 0.1 uM measured for 72 hrs by annexin V-FITC and PI staining based flow cytometry analysis (reference value: 9.70 to […]); conditions: t-cell
[2] = Toxicity in human T cells derived from human PBMC assessed as late apoptotic cells at 0.1 uM measured for 72 hrs by annexin V-FITC and PI staining based flow cytometry analysis (reference value: 11.5 to 17.6%); conditions: t-cell
TERT-RPE1 [3] = assay: Induction of cell cycle arrest in human TERT-RPE1 cells assessed as accumulation of cells at G1 phase at 2500 nM incubated for 72 hrs by annexin V-FITC and PI staining based flow cytometry analysis; format: functional
[4] = Toxicity in NOD/SCID mouse assessed as tolerability at 100 mg/kg, po administered for 5 days; format: organism-based; conditions: in vivo, 120 h, time 5 day
AHH-1 [5] = assay: Antiproliferative activity against human AHH-1 cells assessed as inhibition of cell growth measured for 48 hrs by MTT assay; format: functional, cell-based; conditions: AHH-1, 48 h
TMD8 [6] = assay: Antitumor activity against human TMD8 cells xenografted in NOD/SCID mouse assessed as reduction in tumor volume at 100 mg/kg, po administered for 5 days and measured on day 6; format: functional; conditions: time 6 day
TERT-RPE1 [7] = assay: Induction of cell cycle arrest in human TERT-RPE1 cells assessed as accumulation of cells at G2/M phase at 2500 nM incubated for 72 hrs by annexin V-FITC and PI staining based flow cytometry analysis; format: functional
AHH-1 [8] = assay: Induction of cell cycle arrest in human AHH-1 cells assessed as accumulation of cells at S phase at 100 nM incubated for 72 hrs by annexin V-FITC and PI staining based flow cytometry analysis; format: functional
[9] = Toxicity in human T cells derived from human PBMC assessed as necrotic cells at 0.1 uM measured for 48 hrs by annexin V-FITC and PI staining based flow cytometry analysis (reference value: 0.31 to 0.48 %); conditions: t-cell
TERT-RPE1 [10] = assay: Induction of cell cycle arrest in human TERT-RPE1 cells assessed as accumulation of cells at G2/M phase at 1000 nM incubated for 72 hrs by annexin V-FITC and PI staining based flow cytometry analysis; format: functional
TMD8 [11] = assay: Antitumor activity against human TMD8 cells xenografted in NOD/SCID mouse assessed as reduction in tumor volume at 100 mg/kg, po administered for 5 days and measured on day 1; format: functional; conditions: time 1 day
[12] = Toxicity in human T cells derived from human PBMC assessed as late apoptotic cells at 1 uM measured for 48 hrs by annexin V-FITC and PI staining based flow cytometry analysis (reference value: 13.5 to […] %); conditions: t-cell
HeLa [13] = assay: Induction of cell cycle arrest in human HeLa cells assessed as accumulation of cells at S phase at 2500 nM incubated for 72 hrs by annexin V-FITC and PI staining based flow cytometry analysis; format: functional
HeLa [14] = assay: Induction of cell cycle arrest in human HeLa cells assessed as accumulation of cells at G2/M phase at 1000 nM incubated for 72 hrs by annexin V-FITC and PI staining based flow cytometry analysis; format: functional

COc1cc(C(=O)c2ccn(-c3ncnc4[nH]ccc34)c2)cc(OC)c1OC
Activity [1]: 9.7%
Activity [2]: 11.8%
Activity (TERT-RPE1 [3]): 17.6%
Activity [4]: Non-Toxic
IC50 (AHH-1 [5]): 16.3 nM
Activity (TMD8 [6]): 407 mm3
Activity (TERT-RPE1 [7]): 72.7%
Activity (AHH-1 [8]): 27.2%
Activity [9]: 0.28%
Activity (TERT-RPE1 [10]): 82.7%
Activity (TMD8 [11]): 252 mm3
Activity [12]: 12.7%
Activity (HeLa [13]): 48.7%
Activity (HeLa [14]): 33.8%
